Reference: patent publication US10086027B1, “Green synthesis of katononic acid nanosheets” (KING SAUD UNIVERSITY, priority 2018, dated 2018)

Experiments:
Assay in all cases: Antimicrobial activity, diffusion agar technique
Format in all cases: cell-based
Conditions in all cases: well diameter 6.0 mm, 100 μl
[1] = tested on: Absidia corymbffera (RCMB 02564)
Protocol: (§1) The antimicrobial effect of the katononic acid nanosheets was evaluated against gram positive bacteria, gram negative bacteria, and fungi. The diffusion agar technique was used with a well diameter of 6.0 mm and 100 μl of katononic acid nanosheets.

[2] = tested on: Candida albicans (RCMB 05036)
Protocol: as §1

[3] = tested on: Geotricum candidum (RCMB 05097)
Protocol: as §1

[4] = tested on: Staphylococcus aureus (RCMB 010027)
Protocol: as §1

[5] = tested on: Streptococcus pyogenes (RCMB 010015)
Protocol: as §1

[6] = tested on: Staphylococcus epidermidis (RCMB 010024)
Protocol: as §1

[7] = tested on: Proteous vulgaris (RCMB 010085)
Protocol: as §1

[8] = tested on: Salmonella enteritidis (RCMB 010084)
Protocol: as §1

[9] = tested on: Klebsiella pneumoniae (RCMB 0010093)
Protocol: as §1

C[C@@H]1[C@H](O)[C@@H](C)/C=C/C=C/C=C/C=C/C=C/C=C/C=C/[C@H](O[C@@H]2O[C@H](C)[C@@H](O)[C@H](N)[C@@H]2O)C[C@@H]2O[C@](O)(C[C@@H](O)C[C@@H](O)[C@H](O)CC[C@@H](O)C[C@@H](O)CC(=O)O[C@H]1C)C[C@H](O)[C@H]2C(=O)O [Amphotericin B]
Zone of Inhibition (±SD) [1]: 23.0 ± 0.10
Zone of Inhibition (±SD) [2]: 25.7 ± 0.10
Zone of Inhibition (±SD) [3]: 27.0 ± 0.20

CC1(C)S[C@@H]2[C@H](NC(=O)[C@H](N)c3ccccc3)C(=O)N2[C@H]1C(=O)O [Ampicillin]
Zone of Inhibition (±SD) [4]: 27.3 ± 0.14
Zone of Inhibition (±SD) [5]: 26.3 ± 0.34
Zone of Inhibition (±SD) [6]: 25.0 ± 0.18

Gentamycin
Zone of Inhibition (±SD) [7]: 23.4 ± 0.30
Zone of Inhibition (±SD) [8]: 25.2 ± 0.18
Zone of Inhibition (±SD) [9]: 26.4 ± 0.15
